# Results from ChEMBL document CHEMBL5120804, “Total Syntheses and Anti-inflammatory Evaluations of Pongamosides A-C, Natural Furanoflavonoid Glucosides from Fruit of Pongamia pinnata (L.) Pierre” (J Nat Prod, 2022).
# Active and inactive are the calls of the source. The rule behind the calls is not given here.
# How the values were obtained:
# RAW264.7 [1] = experiment: Antiinflammatory activity in mouse RAW264.7 assessed as inhibition of LPS-induced NO production at 25 uM pretreated for 2 hrs followed by LPS addition and measured after 24 hrs; type: functional, cell-based; conditions: time 26.0 hrs
# RAW264.7 [2] = experiment: Antiinflammatory activity in mouse RAW264.7 assessed as inhibition of LPS-induced NO production pretreated for 2 hrs followed by LPS addition and measured after 24 hrs; type: functional, cell-based
IC50 (RAW264.7 [2]) [µM],SMILES,Activity (RAW264.7 [1])
–,COc1c(-c2ccccc2)oc2c(cc(O[C@@H]3O[C@H](CO)[C@@H](O)[C@H](O)[C@H]3O)c3occc32)c1=O,Active
22.2,COc1c(-c2ccccc2)oc2c(cc(O)c3occc32)c1=O,Active
–,COc1cc2c(=O)cc(-c3cccc(O)c3)oc2c2ccoc12,Active
27.3,O=c1cc(-c2cccc(O)c2)oc2c1ccc1occc12,Active
